In patent US20070207104A1, “Antimicrobial esters” (priority 2006, published 2007):
Where two headings read alike, the source gives them in different places.

What was measured:
[1] = system: Fungi: Candida albicans, Asperillus niger and Penicillium notatum; test: Minimal inhibitory concentration, agar dilution (Mueller-Hinton), fungi; type: cell-based
Description: (§1) The minimal inhibitory concentration of the composition was determined based on methods as described in the United States Pharmacopiea, National Formulary (“USP, NF”), NF 18, 1995, Microbial Assays and Journal of Applied Microbiology 89(2): 275-279 by testing microorganisms for their ability to produce visible growth on a series of agar plates containing dilutions of the composition. Mueller-Hinton is the agar medium used in these studies. Dilutions of materials to be tested were made directly into warm molten agar as described below to achieve the final concentration range (0-6%) shown in the Tables below.
(§2) Agar was prepared as recommended by the manufacturer. Sterilized agar was allowed to cool to 50° C. in a water bath and dispensing an appropriate amount into sterile containers. The agent being tested was added to the agar and thoroughly mixed. Plates were then poured and allowed to solidify at room temperature. All plates were used immediately and not stored.
(§3) Broth cultures (24 hours) were adjusted photometrically to give 10^7 CFU/ml (colony forming units/ml) and the plates were inoculated within 30 minutes of standardizing the inoculum. A standard inoculating loop was used to deliver and spread the inoculum on the plates. Plates were allowed to dry at room temperature before inverting and incubation. Bacterial plates were incubated at 35° C. for 48 hours while fungal plates were incubated at 25° C. for 72 hours. All plates were visually inspected immediately following incubation and the results recorded.
(§4) The organisms tested were the following: Gram-positive bacteria: Staphylococcus aureus, and Bacillus subtilis; Gram-negative bacteria: Escherichia coli and Pseudomonas aeruginosa; and Fungi: Candida albicans, Asperillus niger and Penicillium notatum.
(§5) The effects of the structure of the polyhydric alcohol, the structure of the carboxylic acid and the extent of alkoxylation on antimicrobial activity were determined using the MIC assay as described in Example 1. The results below are expressed as the concentration (%) of agent corresponding to the MIC for each group of organisms tested.

[2] = system: Gram-positive bacteria: Staphylococcus aureus, and Bacillus subtilis; test: Minimal inhibitory concentration, agar dilution (Mueller-Hinton), Gram-positive bacteria; type: cell-based; settings: for Minimum Inhibitory Concentration (MIC): Gram Positive Bacteria Staphylococcus aureus, Staphlyococcus epidermidis, Bacillus subtilis; for visible growth on agar plates: Gram Positive Organisms, concentration 0.3 %
Description: Mueller-Hinton is the agar medium used in these studies. Dilutions of materials to be tested were made directly into warm molten agar as described below to achieve the final concentration range (0-6%) shown in the Tables below.
as §2
as §3, with “A” for “Broth cultures (24 hours) were adjusted photometrically to give 10^7 CFU/ml (colony forming units/ml) and the plates were inoculated within 30 minutes of standardizing the inoculum. A”
as §4
The results below are expressed as the concentration (%) of agent corresponding to the MIC for each group of organisms tested.

[3] = system: Gram-negative bacteria: Escherichia coli and Pseudomonas aeruginosa; test: Minimal inhibitory concentration, agar dilution (Mueller-Hinton), Gram-negative bacteria; type: cell-based; settings: for Minimum Inhibitory Concentration (MIC): Gram Negative Bacteria Escherichia coli, Pseudomonas aeruginosa; for visible growth on agar plates: Gram Negative Organisms, concentration 0.3 %
Description: as §1, §2, §3, §4, §5

[4] = system: Gram-positive and Gram-negative organisms as well as fungi; test: Antimicrobial activity in the MIC assay, all groups of organisms tested; type: cell-based
Description: as §1, §2
as §3, with “recorded. […]” for “recorded.”
as §5

[5] = Safety testing: neat material on forearm of human volunteers under occlusive conditions for 48 hours; type: in vivo; design: key to dermal response score (6-point scale): 0=No evidence of any effect; +=Barely perceptible (Minimal, faint, uniform or spotty erythema); 1=Mild (Pink, uniform erythema covering most of the contact site); 2=Moderate (Pink-red erythema uniform in the entire contact site); 3=Marked (Bright re erythema with/without petechiae or papules); 4=Severe (Deep red erythema with/without vesiculation or weeping)
Description: The safety of G-18-O was tested using the neat (undiluted) material applied to the forearm of 51 human volunteers under occlusive conditions for 48 hours. These conditions are particularly aggressive, especially when compared with those in the prior art, where data on safety, if disclosed at all, is generally anecdotal using low concentrations of the agent. The dermal responses for G-18-O were scored by expert evaluators under clinical conditions according to the following 6-point scale: • 0=No evidence of any effect; • +=Barely perceptible (Minimal, faint, uniform or spotty erythema); • 1=Mild (Pink, uniform erythema covering most of the contact site); • 2=Moderate (Pink-red erythema uniform in the entire contact site); • 3=Marked (Bright re erythema with/without petechiae or papules); and • 4=Severe (Deep red erythema with/without vesiculation or weeping).

HLB value = type: physicochemical
[6] = Solubility in water / oil; type: physicochemical

## Glycereth-18 Laurate
[1]
  Minimum Inhibitory Concentration (MIC): >=6%
[2]
  Minimum Inhibitory Concentration (MIC): 0.6%
[3]
  Minimum Inhibitory Concentration (MIC): 0.6%

## Glycereth-18 [reference compound]
[1]
  Minimum Inhibitory Concentration (MIC): >=6%
[2]
  Minimum Inhibitory Concentration (MIC): >=6%
[3]
  Minimum Inhibitory Concentration (MIC): >=6%
[4]
  antimicrobial activity: no activity

## Glycereth-40 Ethylhexanoate
[1]
  Minimum Inhibitory Concentration (MIC): 1.5%
[2]
  Minimum Inhibitory Concentration (MIC): 3%
[3]
  Minimum Inhibitory Concentration (MIC): 3%

## Glycereth-20 Ethylhexanoate
[1]
  Minimum Inhibitory Concentration (MIC): 3%
[2]
  Minimum Inhibitory Concentration (MIC): 3%
[3]
  Minimum Inhibitory Concentration (MIC): 3%

## Glycereth-7 Ethylhexanoate
[1]
  Minimum Inhibitory Concentration (MIC): 1.5%
[2]
  Minimum Inhibitory Concentration (MIC): 3%
[3]
  Minimum Inhibitory Concentration (MIC): 3%

## Glycereth-18 Ethylhexanoate [G-18-O]
[1]
  Minimum Inhibitory Concentration (MIC): 1.5%
[2]
  Minimum Inhibitory Concentration (MIC): 0.6%
  visible growth on agar plates: 50%
[3]
  Minimum Inhibitory Concentration (MIC): 0.6%
  visible growth on agar plates: 50%
[5]; forearm of 51 human volunteers, occlusive, all panelists
  dermal response score (6-point scale): 0
[5]; intimate contact with skin, occlusive conditions
  skin irritation: totally non-irritating
HLB value
  HLB value: greater than 10
[6]
  water solubility: very water soluble
[6]; listed as G-18-0
  water solubility: substantially water-soluble
[6]; listed as Glycereth-18 ethylhexanoate
  water solubility: very water-soluble
[4]
  antimicrobial activity: effective antimicrobial agent
[4]; listed as G-18-0
  antimicrobial activity: essentially equal to that of glyceryl caprylate

## Propylene Glycol-18 Ethylhexanoate
[1]
  Minimum Inhibitory Concentration (MIC): 1.5%
[2]
  Minimum Inhibitory Concentration (MIC): >=6%
[3]
  Minimum Inhibitory Concentration (MIC): >=6%

## Glycereth-18 Benzoate
[1]
  Minimum Inhibitory Concentration (MIC): >=6%
[2]
  Minimum Inhibitory Concentration (MIC): 3%
[3]
  Minimum Inhibitory Concentration (MIC): 3%

## Glycereth-18 Pelargonate
[1]
  Minimum Inhibitory Concentration (MIC): 1.5%
[2]
  Minimum Inhibitory Concentration (MIC): >=6%
[3]
  Minimum Inhibitory Concentration (MIC): >=6%

## CCCCCCCC(=O)OCC(O)CO (centres unmarked) [Glyceryl Caprylate, reference compound]
[2]
  visible growth on agar plates: 50%
[3]
  visible growth on agar plates: 50%
[6]
  oil solubility: substantially oil soluble
